Literature values, collected in patent EP0763114B1, “HEPATITIS G VIRUS AND MOLECULAR CLONING THEREOF” (priority 1994, dated 1995).

System: HCV
Details: individuals infected with HCV, while ribavirin was administered

NC(=O)c1ncn([C@@H]2O[C@H](CO)[C@@H](O)[C@H]2O)n1 [ribavirin, 1-B-D-ribofuranosyl-1-2,4-triazole, 3-carboxamide]
serum levels of alanine aminotransferase (ALT): significant reductions | viral titer: significant reductions
